A short description of assay [1]: The activity to inhibit microtubule assembly, activity expressed as ED50 of compound/ ED50 of paclitaxel. The class given is functional.
Another assay concerns B16. Nature of the assay: The cytotoxic activity was measured against B16 melanoma cells, activity expressed as ED50 of compound/ ED50 of paclitaxel. The class given is functional, Mus musculus.

As to `CC(=O)O[C@H]1C(=O)[C@]2(C)[C@@H](OC(=O)c3cccc(N(C)C)c3)C[C@H]3OC[C@@]3(OC(C)=O)[C@H]2[C@H](OC(=O)c2ccccc2)[C@]2(O)C[C@H](OC(=O)[C@H](O)[C@@H](NC(=O)c3ccccc3)c3ccccc3)C(C)=C1C2(C)C`, the Activity in assay [1] stood at 22.

Turning to `CC(=O)O[C@H]1C(=O)[C@]2(C)[C@@H](OC(=O)c3ccc(N=[N+]=[N-])cc3)C[C@H]3OC[C@@]3(OC(C)=O)[C@H]2[C@H](OC(=O)c2ccccc2)[C@]2(O)C[C@H](OC(=O)[C@H](O)[C@@H](NC(=O)c3ccccc3)c3ccccc3)C(C)=C1C2(C)C`, the Cytotoxicity in the assay on B16 was 30. Further, the Activity in assay [1] came to 21.

As for `CC(=O)O[C@H]1C(=O)[C@]2(C)[C@@H](OC(=O)CI)C[C@H]3OC[C@@]3(OC(C)=O)[C@H]2[C@H](OC(=O)c2ccccc2)[C@]2(O)C[C@H](OC(=O)[C@H](O)[C@@H](NC(=O)c3ccccc3)c3ccccc3)C(C)=C1C2(C)C`, the Cytotoxicity in the assay with B16 was 3.7. The Activity in assay [1] worked out at 3.3.

Consider `CC(=O)O[C@H]1C(=O)[C@@]2(C)[C@H]([C@H](OC(=O)c3ccccc3)[C@]3(O)C[C@H](OC(=O)[C@H](O)[C@@H](NC(=O)c4ccccc4)c4ccccc4)C(C)=C1C3(C)C)[C@]1(OC(C)=O)CO[C@@H]1C[C@@H]2O` [PACLITAXEL], for which the Cytotoxicity with B16 came to 1. The compound also came in with an Activity in assay [1] of 1.

Regarding `CC(=O)O[C@H]1C(=O)[C@]2(C)[C@@H](OC(=O)c3cccc(N=[N+]=[N-])c3)C[C@H]3OC[C@@]3(OC(C)=O)[C@H]2[C@H](OC(=O)c2ccccc2)[C@]2(O)C[C@H](OC(=O)[C@H](O)[C@@H](NC(=O)c3ccccc3)c3ccccc3)C(C)=C1C2(C)C`, the Activity in assay [1] was above 24.

As to `CC(=O)O[C@H]1C(=O)[C@]2(C)[C@@H](OC(=O)c3cc(N)cc([N+](=O)[O-])c3)C[C@H]3OC[C@@]3(OC(C)=O)[C@H]2[C@H](OC(=O)c2ccccc2)[C@]2(O)C[C@H](OC(=O)[C@H](O)[C@@H](NC(=O)c3ccccc3)c3ccccc3)C(C)=C1C2(C)C`, in the assay with B16, the Cytotoxicity worked out at 16. The same compound had an Activity in assay [1] of 4.4.

The compound `CC(=O)O[C@H]1C(=O)[C@]2(C)[C@@H](OC(=O)c3cc(N=[N+]=[N-])cc([N+](=O)[O-])c3)C[C@H]3OC[C@@]3(OC(C)=O)[C@H]2[C@H](OC(=O)c2ccccc2)[C@]2(O)C[C@H](OC(=O)[C@H](O)[C@@H](NC(=O)c3ccccc3)c3ccccc3)C(C)=C1C2(C)C` showed an Activity in assay [1] above 24.

In turn, `CC(=O)O[C@H]1C(=O)[C@]2(C)[C@@H](OC(=O)CCl)C[C@H]3OC[C@@]3(OC(C)=O)[C@H]2[C@H](OC(=O)c2ccccc2)[C@]2(O)C[C@H](OC(=O)[C@H](O)[C@@H](NC(=O)c3ccccc3)c3ccccc3)C(C)=C1C2(C)C` registered a Cytotoxicity in the assay on B16 of 0.92. The compound further returned an Activity in assay [1] of 1.6.

Take `CC(=O)O[C@H]1C(=O)[C@]2(C)[C@@H](OC(=O)c3cccc(N)c3)C[C@H]3OC[C@@]3(OC(C)=O)[C@H]2[C@H](OC(=O)c2ccccc2)[C@]2(O)C[C@H](OC(=O)[C@H](O)[C@@H](NC(=O)c3ccccc3)c3ccccc3)C(C)=C1C2(C)C`: the Cytotoxicity in the assay on B16 is on record as 7.1. In assay [1], the Activity was determined as 1.5.

Take `CC(=O)O[C@H]1C(=O)[C@]2(C)[C@@H](OC(=O)c3ccc(N)cc3)C[C@H]3OC[C@@]3(OC(C)=O)[C@H]2[C@H](OC(=O)c2ccccc2)[C@]2(O)C[C@H](OC(=O)[C@H](O)[C@@H](NC(=O)c3ccccc3)c3ccccc3)C(C)=C1C2(C)C`: the Cytotoxicity in the assay with B16 was 17. Besides, the Activity in assay [1] is 1.7.

`CC(=O)O[C@H]1C(=O)[C@]2(C)[C@@H](OC(=O)c3ccccc3)C[C@H]3OC[C@@]3(OC(C)=O)[C@H]2[C@H](OC(=O)c2ccccc2)[C@]2(O)C[C@H](OC(=O)[C@H](O)[C@@H](NC(=O)c3ccccc3)c3ccccc3)C(C)=C1C2(C)C` [PACLITAXEL C7 BENZOIC ACID ESTER] displayed a Cytotoxicity in the assay with B16 of 9.7. Further, in assay [1], the Activity was 4.1.

`CC(=O)O[C@H]1C(=O)[C@@]2(C)C([C@H](OC(=O)c3ccccc3)[C@]3(O)C[C@H](OC(=O)[C@H](O)[C@@H](NC(=O)c4ccccc4)c4ccccc4)C(C)=C1C3(C)C)[C@]1(OC(C)=O)CO[C@@H]1C[C@@H]2OC(=O)c1cccc(C(C)C)c1` (stereo not given in full) yielded an Activity in assay [1] above 32.
